Test results as given in patent US20040132037A1, “Materials and methods for the induction of premature chromosone condensation” (priority 2004, published 2004).
Like-named read-outs stand apart in the source and are kept apart here.

Columns and labels:
unstimulated HPBL = assay: PCC induction (PCC index) in unstimulated HPBL; type: cell-based, human; details: cell culture medium containing OA alone, no mitogen
Method: (§1) PCC spreads may be prepared according to standard cytogenetic procedures directly after the indicated treatment. Briefly, cells may be treated with a hypotonic potassium chloride (0.075 M) solution for 5 minutes and fixed in acetic: methanol (1:3) fixative. Fixed cells may be dropped onto acid cleaned glass slides.
(§2) To directly visualize the spread chromosomes, the slides may be stained. Suitable stains are known to those of skill in the art, for example, a 4% aqueous solution of Giemsa stain may be used for observation under a light microscope. Coded slides can be analyzed under 1000×magnification. Cells with condensed chromatin material displaying at least partial separation of chromosomes are scored as PCC spreads.
(§3) The PCC index may be determined as follows. [formula]
(§4) The HPBL were treated with OA at concentrations ranging from 0.25 to 1 μM in a cell culture medium containing 100 μM ATP and incubated at 37° C. for varying durations of up to 24 hours. Slides were prepared and PCC index was determined as explained above.
In the following working example of the present invention, PCC induction in unstimulated HPBL was accomplished by the addition of p34^cdc2/cyclin B kinase to the complete media supplemented with ATP (100 μM) containing OA (0.75 μM) and incubation for three hours at 37° C. […]

mitogen-stimulated HPBL = assay: PCC induction (PCC index) by OA in mitogen-stimulated HPBL; type: cell-based, human
Method: as §1, §2, §3
HPBLs prepared as described above may be incubated in cell culture medium supplemented with an energy source. In order to determine the optimal OA concentration and duration of incubation for PCC, phytohemagglutinin (PHA, 10 μg/ml; Murex Diagnostics) was subsequently added to the medium to stimulate proliferation.
as §4

[1] = system: human myeloid leukemic cell lines; details: cited from earlier work

C=C1[C@@H](O)[C@@H]2O[C@]3(CC[C@H](/C=C/[C@@H](C)[C@@H]4CC(C)=C[C@@]5(O[C@H](C[C@@](C)(O)C(=O)O)CC[C@H]5O)O4)O3)CC[C@H]2O[C@@H]1[C@@H](O)C[C@H](C)[C@H]1O[C@@]2(CCCCO2)CC[C@H]1C [OA, okadaic acid]
PCC induction (unstimulated HPBL): did not result in PCC induction | PCC levels determined by PCC index compared with controls (mitogen-stimulated HPBL; OA 0.25 μM, within 1 hour, p<0.01, Student's t-test): significant | cytostatic effect (mitogen-stimulated HPBL; OA 0.75 μM): not cytostatic | PCC index, maximum (mitogen-stimulated HPBL; OA 1 μM, 8 hours, PHA 10 μg/ml, 100 μM ATP, 37° C.): 61% | quality of PCC spreads (mitogen-stimulated HPBL; prolonged treatment with higher concentrations of OA, possibly due to toxicity): poor spread quality | phase of cell-cycle arrest ([1]; higher PCC inducible concentrations (above 0.5 μM)): G1-S-phase | phase of cell-cycle arrest ([1]; lower concentrations): G2-M phase
